# In ChEMBL document CHEMBL1240307, “A functional genomics approach to the mode of action of apratoxin A” (Nat Chem Biol, 2006):
# How the values were obtained:
# HT-29 [1] = experiment: Antitumor activity against human HT-29 cells assessed as upregulation of DDIT4 mRNA expression at 10 nM after 6 hrs relative to control; type: functional
# HT-29 [2] = experiment: Antitumor activity against human HT-29 cells assessed as upregulation of HSPA1A mRNA expression at 10 nM after 3 hrs relative to control; type: functional
# HT-29 [3] = experiment: Antitumor activity against human HT-29 cells assessed as down-regulation of TAL1 mRNA expression at 10 nM after 12 hrs relative to control; type: functional
# SN12C = experiment: Cytotoxicity against human SN12C cells by sulforhodamine B assay; type: functional
# HOP-62 = experiment: Cytotoxicity against human HOP62 cells by sulforhodamine B assay; type: functional
# HT-29 [4] = experiment: Antitumor activity against human HT-29 cells assessed as upregulation of RASSF4 mRNA expression at 10 nM after 12 hrs relative to control; type: functional
# SNB-75 = experiment: Cytotoxicity against human SNB75 cells by sulforhodamine B assay; type: functional
# HT-29 [5] = experiment: Antitumor activity against human HT-29 cells assessed as upregulation of KCNK10 mRNA expression at 10 nM after 12 hrs relative to control; type: functional
# HT-29 [6] = experiment: Antitumor activity against human HT-29 cells assessed as down-regulation of CCNE2 mRNA expression at 2 nM after 12 hrs relative to control; type: functional
# U2OS [7] = experiment: Induction of apoptosis in human U2OS cells assessed as caspase3 dependent cleavage of Ac-DEVD-pNA at 50 nM after 6-48 hrs by […] relative to control; type: functional
# [8] = Cytotoxicity against activated human CD4+ T cells assessed as cell viability after 5 days by fluorescence detection method; type: cell-based; settings: 120 h
# HT-29 [9] = experiment: Antitumor activity against human HT-29 cells assessed as down-regulation of GTSE1 mRNA expression at 10 nM after 12 hrs relative to control; type: functional
# HT-29 [10] = experiment: Antitumor activity against human HT-29 cells assessed as down-regulation of TAL1 mRNA expression at 2 nM after 12 hrs relative to control; type: functional
# HOP-92 = experiment: Cytotoxicity against human HOP92 cells by sulforhodamine B assay; type: functional
# HT-29 [11] = experiment: Antitumor activity against human HT-29 cells assessed as down-regulation of RAB11B mRNA expression at 2 nM after 3 hrs relative to control; type: functional
# HT-29 [12] = experiment: Antitumor activity against human HT-29 cells assessed as down-regulation of CDC25A mRNA expression at 2 nM after 3 hrs relative to control; type: functional
# SF-268 = experiment: Cytotoxicity against human SF268 cells by sulforhodamine B assay; type: functional
# HT-29 [13] = experiment: Antitumor activity against human HT-29 cells assessed as upregulation of KCNK10 mRNA expression at 10 nM after 6 hrs relative to control; type: functional
# 786-0 = experiment: Cytotoxicity against human 786-0 cells by sulforhodamine B assay; type: functional
# EKVX = experiment: Cytotoxicity against human EKVX cells by sulforhodamine B assay; type: functional
# SR = experiment: Cytotoxicity against human SR cells by sulforhodamine B assay; type: functional
# HT-29 [14] = experiment: Cytotoxicity against human HT-29 cells by sulforhodamine B assay; type: functional
# NCI-H322M = experiment: Cytotoxicity against human NCI-H322M cells by sulforhodamine B assay; type: functional
# HT-29 [15] = experiment: Antitumor activity against human HT-29 cells assessed as upregulation of KCNK10 mRNA expression at 2 nM after 6 hrs relative to control; type: functional
# [16] = Cytotoxicity against human […] cells by sulforhodamine B assay; type: functional
# NCI/ADR-RES = experiment: Cytotoxicity against human NCI/ADR-RES cells by sulforhodamine B assay; type: functional
# HT-29 [17] = experiment: Antitumor activity against human HT-29 cells assessed as down-regulation of GTSE1 mRNA expression at 10 nM after 3 hrs relative to control; type: functional
# HT-29 [18] = experiment: Antitumor activity against human HT-29 cells assessed as down-regulation of RAB11B mRNA expression at 2 nM after 6 hrs relative to control; type: functional
# MOLT-4 = experiment: Cytotoxicity against human MOLT4 cells by sulforhodamine B assay; type: functional
# HT-29 [19] = experiment: Antitumor activity against human HT-29 cells assessed as upregulation of MGC4504 mRNA expression at 2 nM after 12 hrs relative to control; type: functional
# HT-29 [20] = experiment: Antitumor activity against human HT-29 cells assessed as down-regulation of CDC25A mRNA expression at 10 nM after 3 hrs relative to control; type: functional
# T47D = experiment: Cytotoxicity against human T47D cells by sulforhodamine B assay; type: functional
# HT-29 [21] = experiment: Antitumor activity against human HT-29 cells assessed as down-regulation of CCNE2 mRNA expression at 10 nM after 12 hrs relative to control; type: functional
# HT-29 [22] = experiment: Antitumor activity against human HT-29 cells assessed as upregulation of HSPA1A mRNA expression at 2 nM after 3 hrs relative to control; type: functional
# U2OS [23] = experiment: Cell cycle arrest in human U2OS cells assessed as accumulation at G1 phase at 50 nM after 48 hrs by FACS analysis (reference value: 49.8%); type: functional
# PC-3 = experiment: Cytotoxicity against human PC3 cells by sulforhodamine B assay; type: functional
# SK-MEL-5 = experiment: Cytotoxicity against human SK-MEL-5 cells by sulforhodamine B assay; type: functional
# SK-MEL-28 = experiment: Cytotoxicity against human SK-MEL-28 cells by sulforhodamine B assay; type: functional
# HCC 2998 = experiment: Cytotoxicity against human HCC2998 cells by sulforhodamine B assay; type: functional
# HL-60(TB) = experiment: Cytotoxicity against human HL-60(TB) cells by sulforhodamine B assay; type: functional
# HT-29 [24] = experiment: Antitumor activity against human HT-29 cells assessed as down-regulation of GTSE1 mRNA expression at 2 nM after 3 hrs relative to control; type: functional
# HT-29 [25] = experiment: Antitumor activity against human HT-29 cells assessed as down-regulation of GTSE1 mRNA expression at 2 nM after 6 hrs relative to control; type: functional
# CAKI-1 = experiment: Cytotoxicity against human Caki1 cells by sulforhodamine B assay; type: functional
# U2OS [26] = experiment: Cell cycle arrest in human U2OS cells assessed as accumulation at G1 phase at 5 nM after 24 hrs by FACS analysis (reference value: 49.8%); type: functional
# U-251 = experiment: Cytotoxicity against human U251 cells by sulforhodamine B assay; type: functional
# UO-31 = experiment: Cytotoxicity against human UO31 cells by sulforhodamine B assay; type: functional
# HT-29 [27] = experiment: Antitumor activity against human HT-29 cells assessed as down-regulation of GTSE1 mRNA expression at 10 nM after 6 hrs relative to control; type: functional
# TK-10 = experiment: Cytotoxicity against human TK10 cells by sulforhodamine B assay; type: functional
# HT-29 [28] = experiment: Antitumor activity against human HT-29 cells assessed as upregulation of KCNK10 mRNA expression at 10 nM after 3 hrs relative to control; type: functional
# HT-29 [29] = experiment: Antitumor activity against human HT-29 cells assessed as upregulation of MGC4504 mRNA expression at 10 nM after 6 hrs relative to control; type: functional
# [30] = read-out: LC50 (the source's name)
compound,measurement,setting,value
CC[C@H](C)[C@H]1C(=O)N2CCC[C@H]2C(=O)O[C@H](C(C)(C)C)C[C@@H](C)C[C@H](O)[C@H](C)C2=N[C@@H](/C=C(\C)C(=O)N[C@@H](Cc3ccc(OC)cc3)C(=O)N(C)[C@@H](C)C(=O)N1C)CS2 [APRATOXIN A],fold change (FC),HT-29 [1],16.18
same,fold change (FC),HT-29 [2],2.21
same,fold change (FC),HT-29 [3],<=2
same,GI50,SN12C,3.94 nM
same,GI50,HOP-62,7.68 nM
same,fold change (FC),HT-29 [4],<=2
same,GI50,SNB-75,1.96 nM
same,fold change (FC),HT-29 [5],<=2
same,fold change (FC),HT-29 [6],<=2
same,fold change (FC),U2OS [7],20
same,IC50,[8],60 nM
same,fold change (FC),HT-29 [9],-2.35
same,fold change (FC),HT-29 [10],<=2
same,GI50,HOP-92,3.09 nM
same,fold change (FC),HT-29 [11],-3.68
same,fold change (FC),HT-29 [12],<=2
same,GI50,SF-268,50.8 nM
same,fold change (FC),HT-29 [13],7.38
same,GI50,786-0,4.52 nM
same,GI50,EKVX,7.56 nM
same,GI50,SR,1.5 nM
same,CC50,SR; [30],27.4 nM
same,GI50,HT-29 [14],1.04 nM
same,CC50,HT-29 [14]; [30],75.2 nM
same,GI50,NCI-H322M,3.99 nM
same,fold change (FC),HT-29 [15],6.35
same,GI50,[16],1.28 nM
same,CC50,[16]; [30],69 nM
same,GI50,NCI/ADR-RES,15.3 nM
same,fold change (FC),HT-29 [17],<=2
same,fold change (FC),HT-29 [18],<=2
same,GI50,MOLT-4,48 nM
same,fold change (FC),HT-29 [19],5.19
same,fold change (FC),HT-29 [20],<=2
same,GI50,T47D,3.63 nM
same,fold change (FC),HT-29 [21],-2.17
same,fold change (FC),HT-29 [22],<=2
same,inhibition at 0.05 µM,U2OS [23],50.2%
same,GI50,PC-3,4.96 nM
same,GI50,SK-MEL-5,2.31 nM
same,GI50,SK-MEL-28,5.49 nM
same,GI50,HCC 2998,3.65 nM
same,GI50,HL-60(TB),0.851 nM
same,fold change (FC),HT-29 [24],<=2
same,fold change (FC),HT-29 [25],<=2
same,GI50,CAKI-1,4.05 nM
same,inhibition at 0.005 µM,U2OS [26],61.6%
same,GI50,U-251,1.56 nM
same,GI50,UO-31,2.95 nM
same,fold change (FC),HT-29 [27],<=2
same,GI50,TK-10,2.63 nM
same,fold change (FC),HT-29 [28],10.01
same,fold change (FC),HT-29 [29],10.46
